{"source": "paper PMC5564600", "about": "(Oncotarget, 2017)", "assay_in_all_cases": "biochemical", "type_in_all_cases": "binding", "key": {"panel of 442 kinases [1]": {"molecular_target": "T1, panel of 442 kinases (Homo sapiens, UniProt P10721)", "T1 construct": "purchased Ambit Biosciences (scanMAXX KINOMEscan)", "T1 sequence (P10721 26-976)": "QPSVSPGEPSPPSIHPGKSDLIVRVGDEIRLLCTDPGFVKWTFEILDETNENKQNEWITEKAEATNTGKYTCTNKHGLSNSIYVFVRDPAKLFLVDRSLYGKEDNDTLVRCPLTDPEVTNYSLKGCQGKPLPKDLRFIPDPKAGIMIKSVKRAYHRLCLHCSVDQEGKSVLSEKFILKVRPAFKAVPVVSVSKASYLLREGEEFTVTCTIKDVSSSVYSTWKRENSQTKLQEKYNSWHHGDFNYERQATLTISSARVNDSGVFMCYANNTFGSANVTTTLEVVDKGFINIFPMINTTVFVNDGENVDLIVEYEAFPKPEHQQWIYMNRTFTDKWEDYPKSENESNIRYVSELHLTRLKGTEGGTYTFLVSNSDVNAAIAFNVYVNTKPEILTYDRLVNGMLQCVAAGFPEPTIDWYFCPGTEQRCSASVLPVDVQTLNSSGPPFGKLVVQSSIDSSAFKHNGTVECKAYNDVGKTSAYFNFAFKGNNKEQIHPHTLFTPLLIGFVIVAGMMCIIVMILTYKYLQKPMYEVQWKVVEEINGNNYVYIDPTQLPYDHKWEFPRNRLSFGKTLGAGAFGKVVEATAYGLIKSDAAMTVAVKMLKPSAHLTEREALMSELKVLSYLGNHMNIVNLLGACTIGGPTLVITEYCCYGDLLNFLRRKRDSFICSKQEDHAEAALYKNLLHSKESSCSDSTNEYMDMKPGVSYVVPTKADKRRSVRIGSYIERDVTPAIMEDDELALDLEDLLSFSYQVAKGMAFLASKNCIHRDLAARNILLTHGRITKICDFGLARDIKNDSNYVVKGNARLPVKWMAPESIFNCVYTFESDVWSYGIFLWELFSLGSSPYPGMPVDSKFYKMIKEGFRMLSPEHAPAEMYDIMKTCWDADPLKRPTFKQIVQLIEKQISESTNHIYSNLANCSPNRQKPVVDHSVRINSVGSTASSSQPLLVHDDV", "settings": "kinase KIT; for remaining activity at 1 µM: read-out: % of control at 1 µM"}, "panel of 442 kinases [2]": {"molecular_target": "T2, panel of 442 kinases (Homo sapiens, UniProt Q8IU85)", "T2 construct": "purchased Ambit Biosciences (scanMAXX KINOMEscan)", "T2 sequence (Q8IU85 whole entry)": "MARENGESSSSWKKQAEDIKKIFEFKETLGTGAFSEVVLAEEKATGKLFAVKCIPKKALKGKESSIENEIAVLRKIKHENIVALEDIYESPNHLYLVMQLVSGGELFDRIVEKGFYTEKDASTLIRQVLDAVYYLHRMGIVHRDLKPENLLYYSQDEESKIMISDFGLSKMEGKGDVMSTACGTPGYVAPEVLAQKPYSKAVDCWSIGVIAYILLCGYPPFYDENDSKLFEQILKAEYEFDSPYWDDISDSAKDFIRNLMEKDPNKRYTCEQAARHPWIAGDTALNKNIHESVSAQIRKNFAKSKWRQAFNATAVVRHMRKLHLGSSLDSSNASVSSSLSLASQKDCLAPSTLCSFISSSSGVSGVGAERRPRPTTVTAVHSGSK", "settings": "CAMK1D; for remaining activity at 1 µM: read-out: % of control at 1 µM"}, "panel of 442 kinases [3]": {"molecular_target": "T3, panel of 442 kinases (Homo sapiens, UniProt Q9BUB5)", "T3 construct": "purchased Ambit Biosciences (scanMAXX KINOMEscan)", "T3 sequence (Q9BUB5 whole entry)": "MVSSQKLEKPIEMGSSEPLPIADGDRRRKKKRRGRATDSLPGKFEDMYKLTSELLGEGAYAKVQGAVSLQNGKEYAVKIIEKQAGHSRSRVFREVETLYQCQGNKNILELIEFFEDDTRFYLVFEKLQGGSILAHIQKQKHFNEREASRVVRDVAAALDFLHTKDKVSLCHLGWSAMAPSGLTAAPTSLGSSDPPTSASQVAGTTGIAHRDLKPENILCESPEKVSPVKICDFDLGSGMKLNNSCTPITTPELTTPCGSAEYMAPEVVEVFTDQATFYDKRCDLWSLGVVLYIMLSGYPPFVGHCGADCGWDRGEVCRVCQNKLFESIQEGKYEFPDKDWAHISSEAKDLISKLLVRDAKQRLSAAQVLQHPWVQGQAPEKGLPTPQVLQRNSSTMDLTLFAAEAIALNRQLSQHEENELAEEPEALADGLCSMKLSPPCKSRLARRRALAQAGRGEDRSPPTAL", "settings": "kinase MKNK1; for remaining activity at 1 µM: read-out: % of control at 1 µM"}, "panel of 442 kinases [4]": {"molecular_target": "T4, panel of 442 kinases (Homo sapiens, UniProt O15111)", "T4 construct": "purchased Ambit Biosciences (scanMAXX KINOMEscan)", "T4 sequence (O15111 1-745)": "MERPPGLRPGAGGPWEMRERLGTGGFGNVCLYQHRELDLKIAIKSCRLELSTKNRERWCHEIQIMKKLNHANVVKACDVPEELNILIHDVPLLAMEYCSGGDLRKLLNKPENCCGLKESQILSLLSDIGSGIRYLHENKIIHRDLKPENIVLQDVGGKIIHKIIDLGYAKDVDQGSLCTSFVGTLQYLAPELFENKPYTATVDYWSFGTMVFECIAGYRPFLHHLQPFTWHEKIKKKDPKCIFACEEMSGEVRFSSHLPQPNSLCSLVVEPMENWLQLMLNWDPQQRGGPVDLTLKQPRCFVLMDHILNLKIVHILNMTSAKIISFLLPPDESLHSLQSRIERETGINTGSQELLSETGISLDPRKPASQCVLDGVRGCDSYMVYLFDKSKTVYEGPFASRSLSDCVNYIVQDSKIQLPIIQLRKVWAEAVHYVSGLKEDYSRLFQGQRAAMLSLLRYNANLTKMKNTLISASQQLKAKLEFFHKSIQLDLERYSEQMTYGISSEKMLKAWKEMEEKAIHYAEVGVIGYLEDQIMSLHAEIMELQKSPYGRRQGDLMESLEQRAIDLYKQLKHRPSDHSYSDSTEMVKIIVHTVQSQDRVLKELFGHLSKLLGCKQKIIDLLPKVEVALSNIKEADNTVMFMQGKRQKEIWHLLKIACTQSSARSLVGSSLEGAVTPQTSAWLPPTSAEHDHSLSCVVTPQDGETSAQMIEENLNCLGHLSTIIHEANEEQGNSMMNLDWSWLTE", "settings": "kinase IKK-alpha; for remaining activity at 1 µM: read-out: % of control at 1 µM"}, "panel of 442 kinases [5]": {"molecular_target": "T5, panel of 442 kinases (Homo sapiens, UniProt P42680)", "T5 construct": "purchased Ambit Biosciences (scanMAXX KINOMEscan)", "T5 sequence (P42680 1-631)": "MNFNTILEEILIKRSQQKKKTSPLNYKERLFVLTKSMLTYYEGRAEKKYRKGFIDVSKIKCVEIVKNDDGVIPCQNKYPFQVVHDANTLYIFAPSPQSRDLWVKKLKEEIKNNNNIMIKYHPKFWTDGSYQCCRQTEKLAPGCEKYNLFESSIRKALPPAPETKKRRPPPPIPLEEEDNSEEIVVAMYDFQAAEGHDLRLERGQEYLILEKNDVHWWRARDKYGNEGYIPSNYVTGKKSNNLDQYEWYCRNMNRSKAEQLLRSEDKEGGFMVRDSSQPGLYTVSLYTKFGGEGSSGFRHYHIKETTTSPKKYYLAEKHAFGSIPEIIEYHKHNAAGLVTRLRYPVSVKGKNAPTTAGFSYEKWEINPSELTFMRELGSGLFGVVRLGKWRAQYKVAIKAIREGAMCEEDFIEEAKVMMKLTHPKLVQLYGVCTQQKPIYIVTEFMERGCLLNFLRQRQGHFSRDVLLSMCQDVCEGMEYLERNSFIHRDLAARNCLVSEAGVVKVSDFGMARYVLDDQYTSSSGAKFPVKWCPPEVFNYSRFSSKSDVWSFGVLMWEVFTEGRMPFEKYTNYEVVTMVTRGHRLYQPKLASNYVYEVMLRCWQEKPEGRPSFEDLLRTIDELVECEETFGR", "settings": "kinase TEC; for remaining activity at 1 µM: read-out: TEC (% of control at 1 µM)"}, "panel of 442 kinases [6]": {"molecular_target": "T6, panel of 442 kinases (Homo sapiens, UniProt Q15139)", "T6 construct": "purchased Ambit Biosciences (scanMAXX KINOMEscan)", "T6 sequence (Q15139 1-912)": "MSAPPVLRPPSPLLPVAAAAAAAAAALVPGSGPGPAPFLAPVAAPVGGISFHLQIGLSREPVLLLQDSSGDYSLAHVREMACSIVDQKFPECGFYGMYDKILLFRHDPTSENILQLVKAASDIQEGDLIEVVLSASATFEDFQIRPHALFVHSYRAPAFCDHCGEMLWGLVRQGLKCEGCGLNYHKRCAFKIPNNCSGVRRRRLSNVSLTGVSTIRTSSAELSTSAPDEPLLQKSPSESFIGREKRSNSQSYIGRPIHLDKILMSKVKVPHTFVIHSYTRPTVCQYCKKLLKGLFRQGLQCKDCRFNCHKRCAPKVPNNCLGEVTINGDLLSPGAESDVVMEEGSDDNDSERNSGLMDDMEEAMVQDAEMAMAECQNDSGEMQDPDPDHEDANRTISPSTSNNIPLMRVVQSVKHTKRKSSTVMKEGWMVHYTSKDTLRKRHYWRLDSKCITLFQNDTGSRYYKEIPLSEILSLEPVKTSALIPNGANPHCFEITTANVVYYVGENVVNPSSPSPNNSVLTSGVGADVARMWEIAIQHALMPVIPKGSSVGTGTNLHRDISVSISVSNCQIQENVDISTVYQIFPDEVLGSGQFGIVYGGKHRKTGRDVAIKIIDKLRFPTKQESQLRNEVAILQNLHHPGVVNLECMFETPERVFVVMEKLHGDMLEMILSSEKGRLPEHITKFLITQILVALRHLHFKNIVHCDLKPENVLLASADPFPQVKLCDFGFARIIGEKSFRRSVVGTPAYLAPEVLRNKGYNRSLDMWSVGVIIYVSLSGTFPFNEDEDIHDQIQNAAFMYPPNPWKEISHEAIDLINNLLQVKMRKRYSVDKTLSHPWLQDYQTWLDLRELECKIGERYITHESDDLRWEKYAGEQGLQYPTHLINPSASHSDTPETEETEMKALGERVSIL", "settings": "kinase PRKD1; for remaining activity at 1 µM: read-out: PRKD1 (% of control at 1 µM)"}, "panel of 442 kinases [7]": {"molecular_target": "T7, panel of 442 kinases (Homo sapiens, UniProt Q13131)", "T7 construct": "purchased Ambit Biosciences (scanMAXX KINOMEscan)", "T7 sequence (Q13131 whole entry)": "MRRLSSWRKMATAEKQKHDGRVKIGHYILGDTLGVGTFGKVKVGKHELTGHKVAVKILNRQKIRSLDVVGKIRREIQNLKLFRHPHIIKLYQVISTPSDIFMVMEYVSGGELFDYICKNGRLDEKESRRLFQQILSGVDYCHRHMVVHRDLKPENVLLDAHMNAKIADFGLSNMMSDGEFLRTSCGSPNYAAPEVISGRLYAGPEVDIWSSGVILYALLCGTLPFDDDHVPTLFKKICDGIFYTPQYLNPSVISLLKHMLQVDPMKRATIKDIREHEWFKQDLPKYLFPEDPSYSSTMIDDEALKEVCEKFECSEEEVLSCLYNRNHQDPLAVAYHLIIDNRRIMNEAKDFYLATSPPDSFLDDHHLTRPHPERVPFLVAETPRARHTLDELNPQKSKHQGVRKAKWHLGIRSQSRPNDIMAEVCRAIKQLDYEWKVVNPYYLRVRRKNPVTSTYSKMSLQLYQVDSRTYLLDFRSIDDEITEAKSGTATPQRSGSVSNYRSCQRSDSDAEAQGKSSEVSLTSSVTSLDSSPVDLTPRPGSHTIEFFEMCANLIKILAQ", "settings": "AMPK-alpha1; for remaining activity at 1 µM: read-out: % of control at 1 µM"}, "[8]": {"settings": "10 µM, read-out: % of control at 10 µM"}}}
{"smiles": "Nc1cc(C(F)(F)F)c(-c2cc(N3CCOCC3)nc(N3CCOCC3)n2)cn1", "note": "[Buparlisib]", "values": [{"measurement": "remaining activity at 1 µM", "setting": "panel of 442 kinases [1]", "result": 89, "unit": "%"}, {"measurement": "remaining activity at 10 µM", "setting": "panel of 442 kinases [1]; [8]", "result": 66, "unit": "%"}, {"measurement": "remaining activity at 1 µM", "setting": "panel of 442 kinases [2]", "result": 100, "unit": "%"}, {"measurement": "remaining activity at 10 µM", "setting": "panel of 442 kinases [2]; [8]", "result": 100, "unit": "%"}, {"measurement": "remaining activity at 1 µM", "setting": "panel of 442 kinases [3]", "result": 100, "unit": "%"}, {"measurement": "remaining activity at 10 µM", "setting": "panel of 442 kinases [3]; [8]", "result": 100, "unit": "%"}, {"measurement": "remaining activity at 1 µM", "setting": "panel of 442 kinases [4]", "result": 59, "unit": "%"}, {"measurement": "remaining activity at 10 µM", "setting": "panel of 442 kinases [4]; [8]", "result": 59, "unit": "%"}, {"measurement": "remaining activity at 1 µM", "setting": "panel of 442 kinases [5]", "result": 87, "unit": "%"}, {"measurement": "remaining activity at 10 µM", "setting": "panel of 442 kinases [5]; 10 µM, read-out: TEC (% of control at 10 µM)", "result": 100, "unit": "%"}, {"measurement": "remaining activity at 1 µM", "setting": "panel of 442 kinases [6]", "result": 100, "unit": "%"}, {"measurement": "remaining activity at 10 µM", "setting": "panel of 442 kinases [6]; 10 µM, read-out: PRKD1 (% of control at 10 µM)", "result": 100, "unit": "%"}, {"measurement": "remaining activity at 1 µM", "setting": "panel of 442 kinases [7]", "result": 96, "unit": "%"}, {"measurement": "remaining activity at 10 µM", "setting": "panel of 442 kinases [7]; [8]", "result": 100, "unit": "%"}]}
{"smiles": "Cn1c(=O)n(-c2ccc(C(C)(C)C#N)cc2)c2c3cc(-c4cnc5ccccc5c4)ccc3ncc21", "note": "[Dactolisib, 2-methyl-2-[4-(3-methyl-2-oxo-8-quinolin-3-yl-2,3-dihydroimidazo[4,5-c]quinolin-1-yl)-phenyl] propionitrile]", "values": [{"measurement": "remaining activity at 1 µM", "setting": "panel of 442 kinases [1]", "result": 63, "unit": "%"}, {"measurement": "remaining activity at 1 µM", "setting": "panel of 442 kinases [2]", "result": 87, "unit": "%"}, {"measurement": "remaining activity at 1 µM", "setting": "panel of 442 kinases [3]", "result": 100, "unit": "%"}, {"measurement": "remaining activity at 1 µM", "setting": "panel of 442 kinases [4]", "result": 63, "unit": "%"}, {"measurement": "remaining activity at 1 µM", "setting": "panel of 442 kinases [5]", "result": 96, "unit": "%"}, {"measurement": "remaining activity at 1 µM", "setting": "panel of 442 kinases [6]", "result": 100, "unit": "%"}, {"measurement": "remaining activity at 1 µM", "setting": "panel of 442 kinases [7]", "result": 97, "unit": "%"}]}
{"smiles": "COc1ncc(-c2ccc3nccc(-c4ccnnc4)c3c2)cc1NS(=O)(=O)c1ccc(F)cc1F", "note": "[Omipalisib]", "values": [{"measurement": "remaining activity at 1 µM", "setting": "panel of 442 kinases [1]", "result": 100, "unit": "%"}, {"measurement": "remaining activity at 1 µM", "setting": "panel of 442 kinases [2]", "result": 87, "unit": "%"}, {"measurement": "remaining activity at 1 µM", "setting": "panel of 442 kinases [3]", "result": 43, "unit": "%"}, {"measurement": "remaining activity at 1 µM", "setting": "panel of 442 kinases [4]", "result": 100, "unit": "%"}, {"measurement": "remaining activity at 1 µM", "setting": "panel of 442 kinases [5]", "result": 100, "unit": "%"}, {"measurement": "remaining activity at 1 µM", "setting": "panel of 442 kinases [6]", "result": 100, "unit": "%"}, {"measurement": "remaining activity at 1 µM", "setting": "panel of 442 kinases [7]", "result": 100, "unit": "%"}]}
{"smiles": "FC(F)c1nc2ccccc2n1-c1nc(N2CCOCC2)nc(N2CCOCC2)n1", "note": "[ZSTK474, 2-(difluoromethyl)-1-[4,6-di(4-morpholinyl)-1,3,5-triazin-2-yl]-1H-benzimidazole]", "values": [{"measurement": "remaining activity at 1 µM", "setting": "panel of 442 kinases [1]", "result": 85, "unit": "%"}, {"measurement": "remaining activity at 1 µM", "setting": "panel of 442 kinases [2]", "result": 100, "unit": "%"}, {"measurement": "remaining activity at 1 µM", "setting": "panel of 442 kinases [3]", "result": 92, "unit": "%"}, {"measurement": "remaining activity at 1 µM", "setting": "panel of 442 kinases [4]", "result": 73, "unit": "%"}, {"measurement": "remaining activity at 1 µM", "setting": "panel of 442 kinases [5]", "result": 89, "unit": "%"}, {"measurement": "remaining activity at 1 µM", "setting": "panel of 442 kinases [6]", "result": 100, "unit": "%"}, {"measurement": "remaining activity at 1 µM", "setting": "panel of 442 kinases [7]", "result": 100, "unit": "%"}]}
